Consider two molecules from patent publication US20100120732A1, “AGENT FOR PREVENTION AND/OR TREATMENT OF SYSTEMIC LUPUS ERYTHEMATOSUS” (KOWA CO., LTD., priority 2007, published 2010).

The test system of test [1] is SLE-associated genes in the kidney. The test is described as follows: Expression of SLE-associated genes in the kidney of SLE model mice, overall statement. To be noted: NZB/WF1 mice, oral, 10 weeks, Drug A 30 mg/kg twice a day, Drug B 3 mg/kg once a day, Dunnett's test vs control. The format is in vivo. The method, then:
(§1) Actions of suppressing the expression of disease-associated genes in the kidney by the administration of 2-benzyl-5-(4-chlorophenyl)-6-[4-(methylthio)phenyl]-2H-pyridazine-3-one (hereinafter referred to as Drug A) and prednisolone (hereinafter referred to as Drug B) in combination and the administration of each drug alone were evaluated by using NZB×NZW (NZB/W)F1 mice widely known as spontaneous SLE models.
(§2) Female NZB/WF1 mice (Japan SLC, Inc.) were used as test animals.
(§3) The bodyweight of 20-week-old NZB/WF1 mice was measured. By using the body weight as an index, the mice were divided into groups through one-parameter-based block randomization so that each group becomes uniform.
(§4) Drug administration was conducted from the day after the grouping to 10 weeks thereafter. To a group for sole administration of Drug A, a dose of 30 mg/kg was orally administered, twice a day, in the morning (9:00 to 11:00) and in the evening (15:30 to 17:30). Further, to a group for sole administration of Drug B, a dose of 3 mg/kg was orally administered, once a day, in the daytime (11:30 to 13:30). On the other hand, to a group for combined administration of Drug A and Drug B, 30 mg/kg of Drug A was orally administered in the morning (9:00 to 11:00) and in the evening (15:30 to 17:30), and 3 mg/kg of Drug B was orally administered in the daytime (11:30 to 13:30).
(§5) 10 weeks after the grouping (at the time of 30 weeks old), the kidney was excised from each individual and horizontally divided into two portions. […] The mRNA expression levels of SLE-associated genes (IFN-y (probe No.: Mm00801778_m1), TNF-α (probe No.: Mm00443258_m1), IL-1β (probe No.: Mm00434228_m1), BAFF (probe No.: Mm00446347_m1), IFIT1 (probe No.: Mm00515153_m1), and IP-10 (probe No.: Mm00445235_m1)) were determined by using ABI PRISM (registered trademark) 7900 Sequence Detection System (manufactured by Applied Biosystems, Inc.) and TaqMan (registered trademark) Gene Expression Assays (manufactured by Applied Biosystems, Inc.) by Real-Time RT-PCR method. […]

In the next test the test system is IFIT1 mRNA in the kidney. Description: IFIT1 mRNA expression in the kidney of SLE model mice (Real-Time RT-PCR). The format is in vivo, NZB/WF1 mice. To be noted: Drug A 30 mg/kg twice a day, Drug B 3 mg/kg once a day, oral, 10 weeks; for IFIT1 Relative index: kidney mRNA relative to control group = 1.000; for IFIT1 mRNA expression level (%): kidney, female NZB/WF1 mice, control = 100%, mean ± standard error of 10 to 11 mice. The method, then: as §1, §2, §3, §4
as §5, with “portions. After that, the kidney was subjected to RNase inactivation treatment that involves immersing the kidney in RNAlater (manufactured by QIAGEN GmbH) at 4° C. for 24 hours.” for “portions.”
(§6) Tables 1 to 6 and FIGS. 1 to 6 each show the mRNA expression levels of IFN-γ (Table 1, FIG. 1), TNF-α (Table 2, FIG. 2), IL-1β (Table 3, FIG. 3), BAFF (Table 4, FIG. 4), IFIT1 (Table 5, FIG. 5), and IP-10 (Table 6, FIG. 6) in the kidney in a control group, a group for sole administration of 30 mg/kg of Drug A, a group for sole administration of 3 mg/kg of Drug B, and a group for combined administration of both Drugs. […] The mRNA expression level is expressed as mean±standard error of 10 to 11 mice in each group. […]

The subject of a further test is IFN-γ mRNA in the kidney. Description: IFN-γ mRNA expression in the kidney of SLE model mice (Real-Time RT-PCR). It counts as in vivo, NZB/WF1 mice. The note with it: Drug A 30 mg/kg twice a day, Drug B 3 mg/kg once a day, oral, 10 weeks; for IFN-γ Relative index: kidney mRNA relative to control group = 1.000; for IFN-γ mRNA expression level (%): kidney, female NZB/WF1 mice, control = 100%, mean ± standard error of 10 to 11 mice. The method, then: as §1, §2, §3, §4
as §5, with “portions. After that, the kidney was subjected to RNase inactivation treatment that involves immersing the kidney in RNAlater (manufactured by QIAGEN GmbH) at 4° C. for 24 hours.” for “portions.”
as §6
On the technique in general: Real-time PCR tracks product formation cycle by cycle.

Another test relates to IL-1β mRNA in the kidney. The test is described as follows: IL-1β mRNA expression in the kidney of SLE model mice (Real-Time RT-PCR). It counts as in vivo, NZB/WF1 mice. To be noted: Drug A 30 mg/kg twice a day, Drug B 3 mg/kg once a day, oral, 10 weeks; for IL-1β Relative index: kidney mRNA relative to control group = 1.000; for IL-1β mRNA expression level (%): kidney, female NZB/WF1 mice, control = 100%, mean ± standard error of 10 to 11 mice. The method, then: as §1, §2, §3, §4
as §5, with “portions. After that, the kidney was subjected to RNase inactivation treatment that involves immersing the kidney in RNAlater (manufactured by QIAGEN GmbH) at 4° C. for 24 hours.” for “portions.”
as §6

The test system of a further test is TNF-α mRNA in the kidney. Description: TNF-α mRNA expression in the kidney of SLE model mice (Real-Time RT-PCR). The format is in vivo, NZB/WF1 mice. To be noted: Drug A 30 mg/kg twice a day, Drug B 3 mg/kg once a day, oral, 10 weeks; for TNF-α Relative index: kidney mRNA relative to control group = 1.000; for TNF-α mRNA expression level (%): kidney, female NZB/WF1 mice, control = 100%, mean ± standard error of 10 to 11 mice. The method, then: as §1, §2, §3, §4
as §5, with “portions. After that, the kidney was subjected to RNase inactivation treatment that involves immersing the kidney in RNAlater (manufactured by QIAGEN GmbH) at 4° C. for 24 hours.” for “portions.”
as §6

The subject of another test is IP-10 mRNA in the kidney. Description: IP-10 mRNA expression in the kidney of SLE model mice (Real-Time RT-PCR). To be noted: Drug A 30 mg/kg twice a day, Drug B 3 mg/kg once a day, oral, 10 weeks; for IP-10 Relative index: kidney mRNA relative to control group = 1.000; for IP-10 mRNA expression level (%): kidney, female NZB/WF1 mice, control = 100%, mean ± standard error of 10 to 11 mice. The format is in vivo, NZB/WF1 mice. The method, then:
as §1, §2, §3, §4
as §5, with “portions. After that, the kidney was subjected to RNase inactivation treatment that involves immersing the kidney in RNAlater (manufactured by QIAGEN GmbH) at 4° C. for 24 hours.” for “portions.”
as §6

For another test, the system named is BAFF mRNA in the kidney. Description: BAFF mRNA expression in the kidney of SLE model mice (Real-Time RT-PCR). The note with it: Drug A 30 mg/kg twice a day, Drug B 3 mg/kg once a day, oral, 10 weeks; for BAFF Relative index: kidney mRNA relative to control group = 1.000; for BAFF mRNA expression level (%): kidney, female NZB/WF1 mice, control = 100%, mean ± standard error of 10 to 11 mice. It counts as in vivo, NZB/WF1 mice. On the procedure: as §1, §2, §3, §4
as §5, with “portions. After that, the kidney was subjected to RNase inactivation treatment that involves immersing the kidney in RNAlater (manufactured by QIAGEN GmbH) at 4° C. for 24 hours.” for “portions.”
as §6

Turning to `CSc1ccc(-c2nn(Cc3ccccc3)c(=O)cc2-c2ccc(Cl)cc2)cc1` [Drug A, 2-benzyl-5-(4-chlorophenyl)-6-[4-(methylthio)phenyl]-2H-pyridazine-3-one], in test [1], the “action on the expression of SLE-associated genes in the kidney (in words)” value (“action on the expression” below) is “exhibited no action on the expression of SLE-associated genes in the kidney of this model or exhibited only a tendency to slightly suppress the expression”. Further, the “action on the expression” value in test [1] (listed as 2-benzyl-5-(4-chlorophenyl)-6-[4-(methylthio)phenyl]-2H-pyridazine-3-one) was “there was not confirmed a significant action of suppressing the expression of SLE-associated genes in the kidney”. Further, in the test with IFIT1 mRNA in the kidney, the “IFIT1 Relative index” value is 0.721 and the “IFIT1 mRNA expression level (%)” value was 72.1 ± 15.6%. Moreover, in the test with IFN-γ mRNA in the kidney, the “IFN-γ Relative index” value was 0.857 and the “IFN-γ mRNA expression level (%)” value worked out at 85.7 ± 27.1%. For the same molecule, in the test on IL-1β mRNA in the kidney, the “IL-1β Relative index” value worked out at 1.266 and the “IL-1β mRNA expression level (%)” value was found to be 126.6 ± 50.3%. Also, in the test with TNF-α mRNA in the kidney, the “TNF-α Relative index” value was determined as 0.634 and the “TNF-α mRNA expression level (%)” value turned out to be 63.4 ± 13.5%. Besides, in the test on IP-10 mRNA in the kidney, the “IP-10 Relative index” value is reported as 0.883 and the “IP-10 mRNA expression level (%)” value was determined as 88.3 ± 18.1%. In the test on BAFF mRNA in the kidney, the “BAFF Relative index” value stood at 1.135 and the “BAFF mRNA expression level (%)” value was found to be 113.5 ± 13.7%.

With `C[C@]12C=CC(=O)C=C1CC[C@@H]1[C@@H]2[C@@H](O)C[C@@]2(C)[C@H]1CC[C@]2(O)C(=O)CO` [Drug B, prednisolone, reference compound], the “action on the expression” value in test [1] was “exhibited a tendency to suppress the expression of any gene”. In the test with IFIT1 mRNA in the kidney, the “IFIT1 Relative index” value is listed as 0.786 and the “IFIT1 mRNA expression level (%)” value is recorded as 78.6 ± 15.0%. In the test on IFN-γ mRNA in the kidney, the “IFN-γ Relative index” value amounted to 0.360 and the “IFN-γ mRNA expression level (%)” value was 36.0 ± 13.1%. In the test with IL-1β mRNA in the kidney, the “IL-1β Relative index” value is given as 0.661 and the “IL-1β mRNA expression level (%)” value is reported as 66.1 ± 21.9%. Besides, in the test with TNF-α mRNA in the kidney, the “TNF-α Relative index” value is 0.522 and the “TNF-α mRNA expression level (%)” value is recorded as 52.2 ± 13.2%. In addition, in the test with IP-10 mRNA in the kidney, the “IP-10 Relative index” value is recorded as 0.635 and the “IP-10 mRNA expression level (%)” value amounted to 63.5 ± 9.9%. Besides, in the test with BAFF mRNA in the kidney, the “BAFF Relative index” value stood at 0.722 and the “BAFF mRNA expression level (%)” value is listed as 72.2 ± 13.1%.
